According to patent US20240325544A1, “CATIONIC LIPID FOR COVALENT MODIFICATION OF PEPTIDES” (PharmalN Corporation, priority 2023, published 2024):
Bridge positions count the residues as written; N and C are the ends. Square brackets hold non-standard residues; d marks the D form. Peptide text beside a SMILES is read from it. * marks the point of attachment. Palmitoyl = CCCCCCCCCCCCCCCC(=O)*; Dap = NC[C@H](N)C(=O)O; AEEA = NCCOCCOCC(=O)O

Key:
human NPRB = target: T1, human NPRB (Homo sapiens, UniProt P20594); test: Fluorescence polarization (FP) assay with CNP-F* probe, NPRB; type: binding; conditions: 150 nM test article, 5 nM CNP-F*, 50 nM human NPRB
T1 construct: NPRB R1-T433, (GenBank Accn. #NP_003986.2); made in house; host or cells: Expi293 cells
T1 sequence (P20594 23-455): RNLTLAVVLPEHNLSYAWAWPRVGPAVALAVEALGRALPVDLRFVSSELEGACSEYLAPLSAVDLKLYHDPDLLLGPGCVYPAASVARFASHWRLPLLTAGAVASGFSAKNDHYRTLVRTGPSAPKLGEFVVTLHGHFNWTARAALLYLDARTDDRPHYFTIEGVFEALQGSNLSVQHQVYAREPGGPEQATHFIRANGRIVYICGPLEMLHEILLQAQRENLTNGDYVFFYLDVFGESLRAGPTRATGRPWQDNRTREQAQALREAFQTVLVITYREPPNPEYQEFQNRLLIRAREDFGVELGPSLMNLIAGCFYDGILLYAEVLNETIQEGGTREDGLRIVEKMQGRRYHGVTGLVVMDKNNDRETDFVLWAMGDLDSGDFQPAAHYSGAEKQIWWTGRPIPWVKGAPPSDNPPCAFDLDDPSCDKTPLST
Method: Error bars represent standard error of the mean. […] NO.
In the presence of [SEQ ID.
The CNP-F* probe was incubated at a final concentration of 5 nM in the presence of 50 nM human NPRB or NPRC in an assay buffer containing PBS, pH 7.4 and 0.01% Triton X-100. A […] volume of CNP-F* probe and NPR were dispensed into a black 96-well Costar flat-bottom polystyrene plate prior to FP measurement. Next, […] volume of SEQ ID. No. 31 (final concentration 150 nM) was added to the premixed probe and NPR. The plate was incubated at room temperature for 10 min. Fluorescence polarization was then measured on Flexstation 3 (excitation wavelength: 480 nm; emission wavelength: 525 nm and cutoff at 515 nm).
CNP-F* was prepared using solid phase peptide synthesis. […] Next, the crude linear peptide was cleavage with 95% TFA in the presence of carbocation scavengers and ether precipitation.

[1] = system: E0771 breast cancer cells; test: Orthotopic mouse model of bone metastasis using breast cancer E0771 cells (FIG. 10); type: in vivo, mice
Method: FIGS. 10A-10B. […] Error bars indicate standard error of the mean. […] Also illustrated in this diagram are the corresponding schedules for each treatment administered throughout this study. From tumor implantation, SEQ ID NO: 31 treated groups (2, 3, 6, and 7) were dosed SC (0.3 mg/kg/0.1 μmol/kg in buffer 15 mM succinate, 4% (w/v) D-mannitol, 10 mM hydoxypropyl-beta-cyclodextrin pH 4.4) on Days 5-9, 12-16, 19-23, and 26-29; aPD1 treated groups (3, 5, and 7) were dosed IP (5 mg/kg) on Days 5, 7, 12, and 14; and irradiated groups (4, 5, 6, and 7) received buffer and 5 Gy of X-ray radiation in three sets at the bone on Days 5, 8, and 12. Survival was observed until Day 33, following scheduled sacrifice of remaining mice. At this point, tumor sizes were measured using calipers. […] All groups were significant compared to the control group, so statistical analysis was based on Log-rank (Mantel-Cox) test against group 5 (radiation+aPD1) using GraphPad Prism.
Animal care and treatment: Female C57BL/6J mice (6 weeks-old) were purchased from Oriental Bioservice (Kobe, Japan) and maintained under a 12-hour light/12-hour dark cycle with free access to water and standard mouse diet (CRF diet; Oriental Yeast Co., Ltd, Tokyo Japan). Implantation and drug administration: Mice were orthotopically implanted with E0771 breast cancer cells (Cosmo Bio Tokyo, Japan; 250,000 cells/mouse in RPMI1640 medium (Fujifilm, Tokyo Japan)) in their left mammary gland and E0771 mouse breast cancer cells (500,000 cells/mouse in 50% Matrigel (Corning, NY, USA, #354234)) in their femur. Mice were then randomized into several treatment groups: 1) control (n=5), 2) SEQ ID NO: 31 (n=5), 3) SEQ ID NO: 31 and aPD1 (n=5), 4) radiation (n=6), 5) radiation and aPD1 (n=5), 6) SEQ ID NO: 31 and radiation (n=6), 7) SEQ ID NO: 31, radiation, and aPD1 (n=6). […] Survival was monitored up to Day 33 (FIG. 10B) post cell inoculation, and following scheduled sacrifice of the remaining mice, tumors were harvested, and sizes were measured using calipers. […]

CCCCCCCCCCCCCCCC(=O)NCCOCCOCC(=O)NCCOCCOCC(=O)NCCOCCOCC(=O)N[C@@H](CN)C(=O)N[C@@H](CN)C(=O)NCC(=O)N[C@@H](CC(C)C)C(=O)N[C@@H](CO)C(=O)N[C@@H](CCCCN)C(=O)NCC(=O)N[C@H]1CSSC[C@@H](C(=O)O)NC(=O)CNC(=O)[C@H](CC(C)C)NC(=O)CNC(=O)[C@H](CO)NC(=O)[C@H](CCC(N)=O)NC(=O)[C@H](CO)NC(=O)CNC(=O)[C@H]([C@@H](C)CC)NC(=O)[C@H](CCCNC(=N)N)NC(=O)[C@H](CC(=O)O)NC(=O)[C@H](CC(C)C)NC(=O)[C@H](CCCCN)NC(=O)[C@H](CC(C)C)NC(=O)CNC(=O)[C@H](Cc2ccccc2)NC1=O [SEQ ID NO: 31] ({Palmitoyl-AEEA-AEEA-AEEA}-[Dap][Dap]GLSKGCFGLKLDRIGSQSGLGC-OH; disulfide 8-24; C-terminus assumed)
Binding to NPRB (FP signal of CNP-F* probe) (human NPRB): low FP signal demonstrates binding | Incidence of bone metastasis ([1]; addition of SEQ ID NO: 31 in all its respective groups): reduced the incidence of bone metastasis | Mice tumor free in the bone ([1]; group 6: SEQ ID NO: 31 + radiation): 5 out of 6 | Probability of survival vs group 5 (radiation+aPD1) ([1]; group 7: SEQ ID NO: 31 0.3 mg/kg SC + radiation + aPD1, to Day 33): significant improvement in survival | Mice tumor free in the bone ([1]; group 7: SEQ ID NO: 31 + radiation + aPD1): 6 out of 6
